Assay results reported in patent publication US8101581B2, “Use of D-ribose to treat cardiac arrhythmias” (Bioenergy, Inc., priority 2007, dated 2012).
Entries after “also recorded” stand apart in the source; their conditions may differ. Read-outs that look alike come from different tables or passages of the source.

How the values were obtained:
[1] = cited from earlier work
[2] = system: atrial fibrillation; experiment: D-ribose administered to patients with a diagnosis of atrial fibrillation; format: in vivo, human
Description: Eight patients with a diagnosis of atrial fibrillation were administered D-ribose. It can be seen from the above data that not all patients are completely and immediately relieved of atrial fibrillation. […] Therefore, it is recommended that patients ingest 10 to 15 grams of D-ribose daily.

For O=C[C@H](O)[C@H](O)[C@H](O)CO [D-ribose], the Digestive symptoms ([1]; dose of five grams, most people) is listed as “without experiencing these digestive symptoms”, the Digestive symptoms ([1]; doses over about eight grams, many people) is listed as “flatulence and diarrhea” and the “Relief?” value ([2]; Patient 1, duration of AT Recent, daily amount N/R, other medication CoQ) is listed as “complete, immediate”. The “Relief?” value ([2]; Patient 2, duration, daily amount and other medications N/R) was “complete, immediate”, the “Relief?” value ([2]; Patient 3, 5 grams D-ribose daily) was “only partial relief; also recorded: “helped”” and the “Relief?” value ([2]; Patient 4, 5 grams D-ribose daily) was “delayed relief; also recorded: complete, within two”. For the same molecule, the “Relief?” value ([2]; Patient 5, duration 20 years, 10 grams D-ribose daily, CoQ, L-carnitine, Mg) was “complete and immediate relief”, the “Relief?” value ([2]; Patient 6, 10-15 grams D-ribose daily) was “complete and immediate relief; also recorded: “practically” and the “Relief?” value ([2]; Patient 7, 5 grams D-ribose daily) was “complete, immediate”. The Side effects ([2]; administration of low doses of D-ribose) was “no side effects” and the “Persistence of relief of atrial fibrillation” value ([2]; patients on continued D-ribose) was “more than a year”.
